The record followed here is patent US20160362433A1, “ETHER COMPOUNDS FOR TREATMENT OF COMPLEMENT MEDIATED DISORDERS” (Achillion Pharmaceuticals, Inc., priority 2014, published 2016).

For this assay, the target named is T1, Human factor D (Homo sapiens, UniProt P00746).
T1 construct: Human factor D (purified from human serum, Complement Technology, Inc.); purchased Complement Technology, Inc; host or cells: human serum
The assay is described as follows: Human Factor D Assay. To be noted: Human factor D 80 nM, substrate Z-L-Lys-SBzl, DTNB. The assay is classed as biochemical. The method, then: The assay of Example 8 was used to determine the IC50's of the compounds. Other standard factor D inhibition assays are also available.
Human factor D (purified from human serum, Complement Technology, Inc.) at 80 nM final concentration is incubated with test compound at various concentrations for 5 minutes at room temperature in 50 mM Tris, 1M NaCl, pH 7.5. A synthetic substrate Z-L-Lys-SBzl and DTNB (Ellman's reagent) are added to final concentrations of 100 μM each. The increase in color is recorded at OD405 nm in a microplate in kinetic mode over 30 minutes with 30 second time points in a spectrofluorimeter. IC50 values are calculated by non-linear regression from the percentage of inhibition of complement factor D activity as a function of test compound concentration.

T1 sequence (P00746 26-253): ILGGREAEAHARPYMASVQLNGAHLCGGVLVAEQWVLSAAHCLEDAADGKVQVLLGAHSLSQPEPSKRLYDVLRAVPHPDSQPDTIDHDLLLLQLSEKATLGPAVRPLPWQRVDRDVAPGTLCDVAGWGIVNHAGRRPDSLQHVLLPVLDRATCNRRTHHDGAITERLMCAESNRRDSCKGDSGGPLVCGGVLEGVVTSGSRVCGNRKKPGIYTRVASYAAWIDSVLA

Usually IC50 stands for the concentration that gives 50% inhibition. In turn, `CC(=O)c1cn(CC(=O)N2C[C@H](F)C[C@H]2C(=O)NCc2cccc(Cl)c2F)c2cc(OCc3cc4ccc3CCc3ccc(cc3)CC4)ccc12` [Compound 6, (2S,4R)-1-(2-(3-acetyl-6-((tricyclo[8.2.2.2^4,7]hexadeca-4,6,10,12,13,15-hexaen-5-ylmethyl)oxy)-1H-indol-1-yl)acetyl)-N-(3-chloro-2-fluorobenzyl)-4-fluoropyrrolidine-2-carboxamide] returned an IC50 of 1 to 10 µM.
